Values quoted from earlier work in patent US20120065069A1, “AGENT FOR REDUCING NICOTINE AND HARMFUL COMPONENTS IN TOBACCO LEAVES FOR USE IN FIELD CULTIVATION OF TOBACCO” (TOBACCO RESEARCH INSTITUTE OF HUBEI PROVINCE, priority 2009, published 2012).

Experiments:
flue-cured tobacco = conditions: for effect in nicotine reduction: Feng Ding thesis 2006, flue-cured tobacco; for effect in reducing the nicotine content: single ingredient, flue-cured tobacco, Liu et al. 2005 (IAA), Gao et al. 2005 (α-NAA, variety K326)
bean seedling = conditions: 2 mmol/L salicylic acid
corn = conditions: 0.5 mmol/L salicylic acid

O=C(O)COc1ccc(Cl)cc1Cl [2,4-D, 2,4-dichlorophenoxyacetic acid]
effect in nicotine reduction (flue-cured tobacco): significant effects

C[N+](C)(C)CCO.[Cl-] [CC, choline chloride]
effect in nicotine reduction (flue-cured tobacco): significant effects

O=C(O)Cc1c[nH]c2ccccc12 [indolylacetic acid]
effect in reducing the nicotine content (flue-cured tobacco): certain effects

O=C(O)Cc1cccc2ccccc12 [naphthylacetic acid]
effect in reducing the nicotine content (flue-cured tobacco): certain effects

O=C(O)c1ccccc1O [salicylic acid]
effect on damage of drought stress to bean seedling (bean seedling): alleviate the damage of drought stress | effect on tolerance of corn to low temperature (corn): enhance the tolerance
